Source: patent publication US20230227435A1, “SMALL MOLECULE MODULATORS OF IL-17” (LEO PHARMA A/S, priority 2020, published 2023)

Target: T1, human IL-17AA (Homo sapiens, UniProt Q16552)
T1 construct: host or cells: HEK (human embryonic kidney) cells
T1 sequence (Q16552 24-155) 1: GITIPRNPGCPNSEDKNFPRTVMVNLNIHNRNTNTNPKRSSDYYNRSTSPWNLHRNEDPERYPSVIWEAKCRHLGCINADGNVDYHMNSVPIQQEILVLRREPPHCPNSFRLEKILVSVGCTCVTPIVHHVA
T1 sequence (Q16552 24-155) 2: T1 sequence (Q16552 24-155) 1
Assay: IL-8 release assay in human epithelial keratinocytes adult (HEKa)
Type: cell-based
Details: HEKa cells; 3 ng/mL HEK-human IL-17AA + 10 ng/mL human TNFalpha; 68-72 hours; IL-8 by HTRF; read-out: Rel EC50 IL-8 release assay
Protocol: Example 8: IL-8 Release Assay in Human Epithelial Keratinocytes Adult (HEKa)
Keratinocytes were seeded at 3500 cells/well in 384-well ViewPlates (Perkin Elmer) in Epilife medium (Thermo Fisher) containing human keratinocyte growth supplement (HKGS) without hydrocortisone and incubated in a humid incubator at 37° C., 5% CO2, overnight. The following day growth medium was removed and 25 μl fresh Epilife medium was added. 75 nL test compound in100% DMSO was added into each well reserved for test compounds, by the use of acoustic pipetting. The remaining wells received an equal volume of DMSO only, as vehicle control, or terfenadine in DMSO, as a positive control for any cytotoxic compounds. Subsequently, another 25 μL Epilife medium was added to each well. Finally, wells containing test compounds and wells prepared to yield maximum stimulation received 25 μL of 9 ng/mL recombinant, human embryonic kidney cell (HEK)-derived human IL-17AA+30 ng/mL human TNF-alpha, in Epilife medium. Wells prepared to define 100% inhibition of IL-17 effects received 25 μL of 30 ng/mL human TNF-alpha alone, in Epilife medium. Final concentrations were 3 ng/mL HEK-human IL-17AA+10 ng/mL human TNFalpha (maximum stimulation) and 10 ng/mL human TNFalpha alone (100% inhibition, Emax), respectively. Cells were incubated for 68-72 hours in the incubator. IL-8 released from the cells was measured by the use of a commercial homogenous time-resolved fluorescence (HTRF) assay (CisBio). 2 μL cell culture supernatant was transferred to a 384-well Proxiplate. 5 μL HTRF reagent was added and the plates were incubated sealed in the dark for 3-22 hours at room temperature. Time-resolved fluorescence was read at 665 vs 620 nm, with excitation at 320 nm, and IL-8 levels were calculated as percent of controls. Reduction of the amount of secreted IL-8 indicates decreased IL-17 signaling. Concentration response curves were fitted by the use of a four-parameter logistic equation. Relative IC50 and Emax were reported from curves showing acceptable fit (r^2>0.9). Cytotoxicity was measured in the cell-containing Viewplates following addition of 7 μL PrestoBlue (Thermo Fisher) and incubation for 2.5-3 hours at room temperature, by measuring fluorescence at 615 nm (excitation at 535 nm). Fluorescence was directly proportional to the amount of metabolic activity. Reduction of fluorescence signal indicated cytotoxicity.
Compounds of the present invention were tested in the IL-8 release assay in human epithelial keratinocytes.

First: Cc1nn(C)cc1-c1nnc(C(C(=O)Nc2ccc(-c3c(C)n[nH]c3C)cc2)C(C2CC2)C2CC2)[nH]1 (stereo not drawn) [Example 25, 3,3-dicyclopropyl-N-[4-(3,5-dimethyl-1H-pyrazol-4-yl)phenyl]-2-[5-(1,3-dimethylpyrazol-4-yl)-4H-1,2,4-triazol-3-yl]propanamide]
Second: Cc1n[nH]c(C)c1-c1ccc(NC(=O)C(c2nnc(-c3cnn(C)c3C)[nH]2)C(C2CC2)C2CC2)cc1 (stereo not drawn) [Example 38, 3,3-dicyclopropyl-N-[4-(3,5-dimethyl-1H-pyrazol-4-yl)phenyl]-2-[5-(1,5-dimethylpyrazol-4-yl)-4H-1,2,4-triazol-3-yl]propanamide]
The EC50 of the first is 1.6-fold lower: 230 nM for the first, 360 nM for the second.

`Cc1n[nH]c(C)c1-c1ccc(NC(=O)C(c2nnc(-c3ccnn3CC(F)(F)F)[nH]2)C(C2CC2)C2CC2)cc1` (stereo not drawn) [Example 26, 3,3-dicyclopropyl-N-[4-(3,5-dimethyl-1H-pyrazol-4-yl)phenyl]-2-[5-[2-(2,2,2-trifluoroethyl)pyrazol-3-yl]-4H-1,2,4-triazol-3-yl]propanamide] and `Cc1n[nH]c(C)c1-c1ccc(NC(=O)C(c2nnc(-c3ccnn3CC3CC3)[nH]2)C(C2CC2)C2CC2)cc1` (stereo not drawn) [Example 45, 3,3-dicyclopropyl-2-[5-[2-(cyclopropylmethyl)pyrazol-3-yl]-4H-1,2,4-triazol-3-yl]-N-[4-(3,5-dimethyl-1H-pyrazol-4-yl)phenyl]propanamide] are within 1.5-fold of each other in EC50: 24 nM for the first, 22 nM for the second.

Compared with `Cc1n[nH]c(C)c1-c1ccc(NC(=O)C(c2nnc(-c3ccnn3C3CCC3)[nH]2)C(C2CC2)C2CC2)cc1` (stereo not drawn) [Example 27, 2-[5-(2-cyclobutylpyrazol-3-yl)-4H-1,2,4-triazol-3-yl]-3,3-dicyclopropyl-N-[4-(3,5-dimethyl-1H-pyrazol-4-yl)phenyl]propanamide], `Cc1n[nH]c(C)c1-c1ccc(NC(=O)C(c2nnc(-c3ccnn3C3CC3)[nH]2)C(C2CC2)C2CC2)cc1` (stereo not drawn) [Example 44, 3,3-dicyclopropyl-2-[5-(2-cyclopropylpyrazol-3-yl)-4H-1,2,4-triazol-3-yl]-N-[4-(3,5-dimethyl-1H-pyrazol-4-yl)phenyl]propanamide] is 2.4-fold higher in EC50: 32 nM for the first, 77 nM for the second.

`Cc1cc(-c2nnc(C(C(=O)Nc3ccc(-c4c(C)n[nH]c4C)cc3)C(C3CC3)C3CC3)[nH]2)ccn1` (stereo not drawn) [Example 28, 3,3-dicyclopropyl-N-[4-(3,5-dimethyl-1H-pyrazol-4-yl)phenyl]-2-[5-(2-methyl-4-pyridyl)-4H-1,2,4-triazol-3-yl]propanamide] and `COc1cc(-c2nnc(C(C(=O)Nc3ccc(-c4c(C)n[nH]c4C)cc3)C(C3CC3)C3CC3)[nH]2)ccn1` (stereo not drawn) [Example 35, 3,3-dicyclopropyl-N-[4-(3,5-dimethyl-1H-pyrazol-4-yl)phenyl]-2-[5-(2-methoxy-4-pyridyl)-4H-1,2,4-triazol-3-yl]propanamide] are within 1.5-fold of each other in EC50: 140 nM for the first, 160 nM for the second.

Going from `Cc1n[nH]c(C)c1-c1ccc(NC(=O)C(c2nnc(-c3c(C)n[nH]c3C)[nH]2)C(C2CC2)C2CC2)cc1` (stereo not drawn) [Example 29, 3,3-dicyclopropyl-N-[4-(3,5-dimethyl-1H-pyrazol-4-yl)phenyl]-2-[5-(3,5-dimethyl-1H-pyrazol-4-yl)-4H-1,2,4-triazol-3-yl]propanamide] to `Cc1n[nH]c(C)c1-c1ccc(NC(=O)C(c2nnc(-c3c(C)noc3C)[nH]2)C(C2CC2)C2CC2)cc1` (stereo not drawn) [Example 32, 3,3-dicyclopropyl-2-[5-(3,5-dimethylisoxazol-4-yl)-4H-1,2,4-triazol-3-yl]-N-[4-(3,5-dimethyl-1H-pyrazol-4-yl)phenyl]propanamide], the EC50 falls from 1400 nM to 910 nM (1.5-fold). The second is the more potent here.

First: Cc1n[nH]c(C)c1-c1ccc(NC(=O)C(c2nnc(-c3cnn(C(C)C)c3)[nH]2)C(C2CC2)C2CC2)cc1 (stereo not drawn) [Example 30, 3,3-dicyclopropyl-N-[4-(3,5-dimethyl-1H-pyrazol-4-yl)phenyl]-2-[5-(1-isopropylpyrazol-4-yl)-4H-1,2,4-triazol-3-yl]propanamide]
Second: Cc1n[nH]c(C)c1-c1ccc(NC(=O)C(c2nnc(-c3ccnn3C(C)C)[nH]2)C(C2CC2)C2CC2)cc1 (stereo not drawn) [Example 43, 3,3-dicyclopropyl-N-[4-(3,5-dimethyl-1H-pyrazol-4-yl)phenyl]-2-[5-(2-isopropylpyrazol-3-yl)-4H-1,2,4-triazol-3-yl]propanamide]
The EC50 of the first is 4.1-fold higher: 270 nM for the first, 66 nM for the second. The second is the more potent here.

`Cc1n[nH]c(C)c1-c1ccc(NC(=O)C(c2nnc(-c3cccnc3)[nH]2)C(C2CC2)C2CC2)cc1` (stereo not drawn) [Example 31, 3,3-dicyclopropyl-N-[4-(3,5-dimethyl-1H-pyrazol-4-yl)phenyl]-2-[5-(3-pyridyl)-4H-1,2,4-triazol-3-yl]propanamide] and `Cc1n[nH]c(C)c1-c1ccc(NC(=O)C(c2nnc(-c3ccncc3)[nH]2)C(C2CC2)C2CC2)cc1` (stereo not drawn) [Example 33, 3,3-dicyclopropyl-N-[4-(3,5-dimethyl-1H-pyrazol-4-yl)phenyl]-2-[5-(4-pyridyl)-4H-1,2,4-triazol-3-yl]propanamide] are within 1.5-fold of each other in EC50: 430 nM for the first, 480 nM for the second.

`COc1ccc(-c2nnc(C(C(=O)Nc3ccc(-c4c(C)n[nH]c4C)cc3)C(C3CC3)C3CC3)[nH]2)cn1` (stereo not drawn) [Example 34, 3,3-dicyclopropyl-N-[4-(3,5-dimethyl-1H-pyrazol-4-yl)phenyl]-2-[5-(6-methoxy-3-pyridyl)-4H-1,2,4-triazol-3-yl]propanamide] and `Cc1ccc(-c2nnc(C(C(=O)Nc3ccc(-c4c(C)n[nH]c4C)cc3)C(C3CC3)C3CC3)[nH]2)cn1` (stereo not drawn) [Example 36, 3,3-dicyclopropyl-N-[4-(3,5-dimethyl-1H-pyrazol-4-yl)phenyl]-2-[5-(6-methyl-3-pyridyl)-4H-1,2,4-triazol-3-yl]propanamide] are within 1.5-fold of each other in EC50: 430 nM for the first, 440 nM for the second.

Compared with `Cc1cnn(C)c1-c1nnc(C(C(=O)Nc2ccc(-c3c(C)n[nH]c3C)cc2)C(C2CC2)C2CC2)[nH]1` (stereo not drawn) [Example 37, 3,3-dicyclopropyl-N-[4-(3,5-dimethyl-1H-pyrazol-4-yl)phenyl]-2-[5-(2,4-dimethylpyrazol-3-yl)-4H-1,2,4-triazol-3-yl]propanamide], `Cc1n[nH]c(C)c1-c1ccc(NC(=O)C(c2nnc(-c3cnnn3C)[nH]2)C(C2CC2)C2CC2)cc1` (stereo not drawn) [Example 40, 3,3-dicyclopropyl-N-[4-(3,5-dimethyl-1H-pyrazol-4-yl)phenyl]-2-[5-(3-methyltriazol-4-yl)-4H-1,2,4-triazol-3-yl]propanamide] is 2.3-fold higher in EC50: 380 nM for the first, 860 nM for the second. The first is the more potent here.

`Cc1n[nH]cc1-c1nnc(C(C(=O)Nc2ccc(-c3c(C)n[nH]c3C)cc2)C(C2CC2)C2CC2)[nH]1` (stereo not drawn) [Example 39, 3,3-dicyclopropyl-N-[4-(3,5-dimethyl-1H-pyrazol-4-yl)phenyl]-2-[5-(3-methyl-1H-pyrazol-4-yl)-4H-1,2,4-triazol-3-yl]propanamide] and `Cc1nocc1-c1nnc(C(C(=O)Nc2ccc(-c3c(C)n[nH]c3C)cc2)C(C2CC2)C2CC2)[nH]1` (stereo not drawn) [Example 42, 3,3-dicyclopropyl-N-[4-(3,5-dimethyl-1H-pyrazol-4-yl)phenyl]-2-[5-(3-methylisoxazol-4-yl)-4H-1,2,4-triazol-3-yl]propanamide] are within 1.5-fold of each other in EC50: 500 nM for the first, 470 nM for the second.

`Cc1n[nH]c(C)c1-c1ccc(NC(=O)C(c2nnc(-c3cnoc3C)[nH]2)C(C2CC2)C2CC2)cc1` (stereo not drawn) [Example 41, 3,3-dicyclopropyl-N-[4-(3,5-dimethyl-1H-pyrazol-4-yl)phenyl]-2-[5-(5-methylisoxazol-4-yl)-4H-1,2,4-triazol-3-yl]propanamide] was tested, and the EC50 was > 3250 nM.
